Results reported in PubChem BioAssay AID330 (DTP/NCI, 2004).
Values joined by “and” are separate entries in the source; they are usually repeats but may differ in a detail not shown here. Equal entries are not always repeated. Inconclusive results and toxic doses are left out. Rule for the calls: active = survival T/C of 150% or more; inactive = T/C below 125% in these data.

Test system: P388 leukemia ip, CD2F1 mice, survival T/C
Assay: NCI In Vivo Anticancer Drug Screen. Data for tumor model P388 Leukemia (intraperitoneal) in CD2F1 (CDF1) mice
Settings: endpoint: median survival time, higher = longer survival
Outline: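 Mice carrying the transplanted tumor received test compound or vehicle. Survival was recorded in each group, and the value is the treated-group measurement divided by that of the vehicle-treated control group.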

[1] = dose: 50.0 mg/kg/injection, schedule: Q01DX005 (ip), vehicle: Klucel (hydroxypropylcellulose) (HPC)
[2] = dose: 100.0 mg/kg/injection, schedule: Q01DX005 (ip), vehicle: Klucel (hydroxypropylcellulose) (HPC)
[3] = dose: 200.0 mg/kg/injection, schedule: Q01DX005 (ip), vehicle: Klucel (hydroxypropylcellulose) (HPC)
[4] = dose: 100.0 mg/kg/injection, schedule: Q04DX003 (ip), vehicle: saline with Tween-80
[5] = dose: 200.0 mg/kg/injection, schedule: Q04DX003 (ip), vehicle: saline with Tween-80
[6] = dose: 400.0 mg/kg/injection, schedule: Q04DX003 (ip), vehicle: saline with Tween-80
[7] = dose: 25.0 mg/kg/injection, schedule: Q01DX005 (ip), vehicle: Klucel (hydroxypropylcellulose) (HPC)
[8] = dose: 50.0 mg/kg/injection, schedule: Q01DX009 (ip), vehicle: Klucel (hydroxypropylcellulose) (HPC)
[9] = dose: 100.0 mg/kg/injection, schedule: Q01DX009 (ip), vehicle: Klucel (hydroxypropylcellulose) (HPC)
[10] = dose: 200.0 mg/kg/injection, schedule: Q01DX009 (ip), vehicle: Klucel (hydroxypropylcellulose) (HPC)
[11] = dose: 60.0 mg/kg/injection, schedule: Q01DX005 (ip), vehicle: Klucel (hydroxypropylcellulose) (HPC)
[12] = dose: 120.0 mg/kg/injection, schedule: Q01DX005 (ip), vehicle: Klucel (hydroxypropylcellulose) (HPC)
[13] = dose: 12.5 mg/kg/injection, schedule: Q01DX005 (ip), vehicle: Klucel (hydroxypropylcellulose) (HPC)
[14] = dose: 60.0 mg/kg/injection, schedule: Q01DX005 (ip), vehicle: saline with Tween-80
[15] = dose: 120.0 mg/kg/injection, schedule: Q01DX005 (ip), vehicle: saline with Tween-80
[16] = dose: 240.0 mg/kg/injection, schedule: Q01DX005 (ip), vehicle: saline with Tween-80

Measured: T/C

CCOC(CCC(CO)CO)OCC
inactive: dose: 50.0 mg/kg/injection, schedule: Q01DX009 (ip), vehicle: suspension in saline 108 % of control | dose: 100.0 mg/kg/injection, schedule: Q01DX009 (ip), vehicle: suspension in saline 112 % of control | dose: 200.0 mg/kg/injection, schedule: Q01DX009 (ip), vehicle: suspension in saline 96 % of control

CC1CCN(CC(O)C(C)(C)Oc2ccc(-c3ccccc3)cc2)CC1 (stereo not given)
inactive: [1] 97 % of control | [2] 93 % of control

COc1ccc(/C=N/N2C(=O)c3ccccc3C2=O)c(OC)c1
inactive: [1] 99 % of control | [2] 98 % of control | [3] 96 % of control

Cc1ccc(NNC(=O)C(=O)O[C@H]2C(=O)OC[C@@H]2O)cc1
inactive: [1] 100 % of control | [2] 100 % of control | [3] 93 % of control

COc1cccc2c1SCC/C2=N\OCC(O)CNC1CCCCC1 (stereo not given)
inactive: dose: 100.0 mg/kg/injection, schedule: Q04DX002 (ip), vehicle: Klucel (hydroxypropylcellulose) (HPC) 94 % of control | dose: 200.0 mg/kg/injection, schedule: Q04DX002 (ip), vehicle: Klucel (hydroxypropylcellulose) (HPC) 94 % of control

CCOC(=O)/N=c1/nc2ccn(C)c2c(NC(=O)OCC)s1
inactive: [4] 99 % of control | [5] 96 % of control | [6] 96 % of control

Nc1ccccc1SC1=C(Cl)C(=O)c2ccccc2C1=O
inactive: dose: 6.25 mg/kg/injection, schedule: Q01DX009 (ip), vehicle: saline with Tween-80 95 % of control | dose: 12.5 mg/kg/injection, schedule: Q01DX009 (ip), vehicle: saline with Tween-80 94 % of control | dose: 25.0 mg/kg/injection, schedule: Q01DX009 (ip), vehicle: saline with Tween-80 103 % of control

CCCCCCCCCCCCCCSCCCCCCCCCCCCCC
inactive: [7] 100 % of control | [1] 99 % of control | [2] 92 % of control | [3] 92 % of control

COc1ccc(C(=O)c2ccccc2)cc1
inactive: [8] 105 % of control | [9] 108 % of control | [10] 102 % of control | dose: 400.0 mg/kg/injection, schedule: Q01DX009 (ip), vehicle: Klucel (hydroxypropylcellulose) (HPC) 98 % of control

Cn1nc(NC(=O)C(F)(F)F)c2ncc(-c3ccc(Cl)cc3)nc21
inactive: [4] 100 % of control | [5] 90 % of control | [6] 90 % of control

COc1cc2c3cc1Oc1c(OC)c(OC)cc4c1[C@@H](Cc1ccc(O)c(c1)Oc1ccc(cc1)C[C@@H]3N(C)CC2)N(C)CC4
inactive: [11] 102 % of control and 106 % of control | [12] 118 % of control and 113 % of control

O=CC(O)C(O)C(O)COc1cc(CO)cc2c1C(=O)c1ccccc1C2=O (stereo not given)
inactive: [13] 100 % of control | [7] 107 % of control | [1] 106 % of control and 110 % of control | [2] 106 % of control and 107 % of control

c1ccc2c(c1)C1=NCCN1c1ccccc1-2
inactive: dose: 12.0 mg/kg/injection, schedule: Q01DX009 (ip), vehicle: saline with Tween-80 109 % of control | dose: 12.0 mg/kg/injection, schedule: Q01DX009 (ip), vehicle: saline 88 % of control | dose: 18.0 mg/kg/injection, schedule: Q01DX009 (ip), vehicle: saline with Tween-80 113 % of control | dose: 18.0 mg/kg/injection, schedule: Q01DX009 (ip), vehicle: saline 105 % of control | dose: 27.0 mg/kg/injection, schedule: Q01DX009 (ip), vehicle: saline with Tween-80 118 % of control | dose: 27.0 mg/kg/injection, schedule: Q01DX009 (ip), vehicle: saline 111 % of control | dose: 40.0 mg/kg/injection, schedule: Q01DX009 (ip), vehicle: saline with Tween-80 122 % of control

O=C(Nc1cccc(Cl)c1Cl)c1cc(/C=C/c2ccc([N+](=O)[O-])cc2)on1
inactive: dose: 30.0 mg/kg/injection, schedule: Q01DX005 (ip), vehicle: saline with Tween-80 95 % of control | [14] 91 % of control and 96 % of control | [15] 87 % of control and 95 % of control | [16] 97 % of control

CCCCCCCCC(Cn1ccnc1)c1ccc(F)cc1 (stereo not given)
inactive: dose: 50.0 mg/kg/injection, schedule: Q04DX003 (ip), vehicle: saline with Tween-80 106 % of control | [4] 100 % of control and 103 % of control | [5] 100 % of control

C=C1CCC2C(C)(C(=O)O)CCCC2(C)C1CCc1ccoc1 (stereo not given)
inactive: dose: 12.75 mg/kg/injection, schedule: Q01DX005 (ip), vehicle: Klucel + Tween-80 102 % of control | dose: 25.5 mg/kg/injection, schedule: Q01DX005 (ip), vehicle: Klucel + Tween-80 96 % of control | dose: 51.0 mg/kg/injection, schedule: Q01DX005 (ip), vehicle: Klucel + Tween-80 110 % of control | dose: 102.0 mg/kg/injection, schedule: Q01DX005 (ip), vehicle: Klucel + Tween-80 110 % of control

O=C1NNC(c2ccccc2)=Nc2ccccc21
inactive: dose: 100.0 mg/kg/injection, schedule: Q04DX002 (ip), vehicle: saline with Tween-80 96 % of control | dose: 200.0 mg/kg/injection, schedule: Q04DX002 (ip), vehicle: saline with Tween-80 96 % of control | dose: 400.0 mg/kg/injection, schedule: Q04DX002 (ip), vehicle: saline with Tween-80 94 % of control

C=CC(C)(C)/C=C/C=O
inactive: [14] 97 % of control | [15] 92 % of control | [16] 104 % of control

CC(C)(C)C=O
inactive: dose: 100.0 mg/kg/injection, schedule: Q04DX003 (ip), vehicle: saline 100 % of control | dose: 200.0 mg/kg/injection, schedule: Q04DX003 (ip), vehicle: saline 100 % of control | dose: 400.0 mg/kg/injection, schedule: Q04DX003 (ip), vehicle: saline 100 % of control

CC1CC(=O)Nc2ncnc(N)c21 (stereo not given)
inactive: [14] 98 % of control | [15] 106 % of control | [16] 108 % of control

CC[C@@]1(O)C(=O)OCc2c1cc1n(c2=O)Cc2cc3c(N)cccc3nc2-1
active: dose: 0.12 mg/kg/injection, schedule: Q01DX005 (ip), vehicle: saline with Tween-80 153 % of control | dose: 0.25 mg/kg/injection, schedule: Q01DX005 (ip), vehicle: saline with Tween-80 153 % of control | dose: 0.5 mg/kg/injection, schedule: Q01DX005 (ip), vehicle: saline with Tween-80 180 % of control and 204 % of control | dose: 1.0 mg/kg/injection, schedule: Q01DX005 (ip), vehicle: saline with Tween-80 180 % of control

CCOC(=O)N1CCN(CCCCCCOc2ccc(C3CCCCC3)cc2)CC1
inactive: dose: 50.0 mg/kg/injection, schedule: Q01DX009 (ip), vehicle: saline with Tween-80 106 % of control | dose: 100.0 mg/kg/injection, schedule: Q01DX009 (ip), vehicle: saline with Tween-80 118 % of control | dose: 200.0 mg/kg/injection, schedule: Q01DX009 (ip), vehicle: saline with Tween-80 123 % of control

CC1(C)N=C(N)N=C(N)N1CCCCc1ccccc1
inactive: dose: 6.25 mg/kg/injection, schedule: Q01DX005 (ip), vehicle: Klucel (hydroxypropylcellulose) (HPC) 110 % of control | [13] 114 % of control | [7] 118 % of control

CCCCCCCCCCCC[As](CCCCCCCCCCCC)SCC1OC(OC(C)=O)C(OC(C)=O)C(OC(C)=O)C1OC(C)=O (stereo not given)
inactive: [8] 111 % of control | [9] 104 % of control | [10] 105 % of control

CSCCOCc1cc(C)no1
inactive: [14] 100 % of control | [15] 100 % of control | [16] 100 % of control

CC(=O)OC1CSc2ccccc2N(C(C)=O)C1 (stereo not given)
inactive: [11] 104 % of control | [12] 99 % of control | dose: 240.0 mg/kg/injection, schedule: Q01DX005 (ip), vehicle: Klucel (hydroxypropylcellulose) (HPC) 107 % of control

CC(=O)Nc1ccccc1NOC(=O)c1ccccc1NC(C)=O
inactive: [1] 91 % of control | [2] 87 % of control | [3] 91 % of control

N#Cc1c(-c2ccc(Cl)cc2)c(-c2ccc(Cl)cc2)n[nH]c1=O
inactive: [1] 100 % of control | [2] 99 % of control | [3] 104 % of control

CC(=O)OC1CC(C)(C2OC(=O)CC2CO)C2=CC(=O)OC3CC4C(C)(O)C=CC(=O)C4(C)C1C23C (stereo not given)
inactive: dose: 12.5 mg/kg/injection, schedule: Q01DX001 (ip), vehicle: Klucel (hydroxypropylcellulose) (HPC) 100 % of control | dose: 25.0 mg/kg/injection, schedule: Q01DX001 (ip), vehicle: Klucel (hydroxypropylcellulose) (HPC) 100 % of control | dose: 50.0 mg/kg/injection, schedule: Q01DX001 (ip), vehicle: Klucel (hydroxypropylcellulose) (HPC) 102 % of control | dose: 100.0 mg/kg/injection, schedule: Q01DX001 (ip), vehicle: Klucel (hydroxypropylcellulose) (HPC) 105 % of control
